Key:
Pneumocystis carinii = Pneumocystis carinii pneumonia in immunosuppressed rats, elimination of cysts; format: in vivo, Sprague-Dawley rats; conditions: I.P. twice daily for four days, lungs read by microscopic analysis of stained slides
Protocol: In a representative study, the effectiveness of Compound A-2a was determined. Sprague-Dawley rats (weighing approximately 250 grams) were immuno-suppressed with dexasone in the drinking water (2.0 mg/L) and maintained on a low protein diet for five weeds to induce the development of pneumocystis pneumonia from a latent infection. […] Six rats (weighing approximately 150 grams) were injected twice daily for four days intraperitoneally (I.P.) with Compound A-2a in 0.25 ml of vehicle (distilled water). A vehicle control was also carried out. All animals continued to receive dexasone in the drinking water and low protein diet during the treatment period. At the completion of the treatment, all animals were sacrificed, the lungs were removed and processed, and the extent of disease determined by microscopic analysis of stained slides.
In a similar experiment, the animals were sacrificed, the lungs removed and processed, and the extent of disease determined by microscopic analysis of stained slides.

C. albicans = assay: Minimum fungicidal concentration, microbroth dilution assay in YNBD; format: cell-based
Protocol: (§1) The compounds of the present invention are active against many fungi and particularly against Candida species. […] In carrying out the assay, Compound A-2a and A-3a were solubilized in 10% dimethyl sulfoxide (DMSO) and diluted to 2560 μg/ml. The compounds were then diluted to 256 μg/ml in YNBD. […] of the suspension was dispensed to the top row of a 96-well plate (each well containing 0.15 ml of YNDB) resulting in a drug concentration of 128 μg/ml. Two-fold dilutions were then made from the top row to obtain final drug concentrations ranging from 128 to 0.06 μg/ml. The yeast cultures, maintained on Sabouraud dextrose agar were transferred to YM broth (Difco) and incubated overnight at 35° C. with shaking (250 rpm). […] The microplates were incubated at 35° C. for 24 hours. The minimum inhibitory concentrations (MICs) were recorded as the lowest concentrations of drug showing no visible growth. After recording the MIC, the plates were shaken to resuspend the cells. Thereafter, […] samples from the wells in the 96-well microplate were transferred to a single well tray containing Sabouraud dextrose agar. The inoculated trays were incubated 24 hours at 28° C. and then read. […]

C. parapsilosis = assay: as above; format: cell-based; conditions: C. parapsilosis MY 1010
Protocol: as §1

C. tropicalis = assay: as above; format: cell-based; conditions: C. tropicalis MY 1012
Protocol: as §1

Substance: 1-[4-hydroxy-N2-(10,12-dimethyl-1-oxotetradecyl)-ornithine]-4-[3-hydroxy-4' -O-phosphoryl-homotyrosine]-5-[3-hydroxyglutamine]echinocandin B [Compound A-2a]
- ED90 for eliminating P. carinii cysts (Pneumocystis carinii): approximately 2 mg/kg
- Minimum Fungicidal Concentration (C. albicans; C. albicans MY 1028): 1 µg/mL
- Minimum Fungicidal Concentration (C. albicans; C. albicans MY 1055): 1 µg/mL
- Minimum Fungicidal Concentration (C. albicans; C. albicans MY 1208): 1 µg/mL
- Minimum Fungicidal Concentration (C. parapsilosis): 16 µg/mL
- Minimum Fungicidal Concentration (C. tropicalis): 0.5 µg/mL

Substance: 1-[N2-(10,12-dimethyl-1-oxotetradecyl)-ornithine]-4-[3,4-dihydroxy-4'-O-pho sphoryl-homotyrosine]-5-[3-hydroxyglutamine] echinocandin B [Compound A-3a]
- ED90 for eliminating P. carinii cysts (Pneumocystis carinii): approximately 2.5 mg/kg
- Minimum Fungicidal Concentration (C. albicans; C. albicans MY 1028): 4 µg/mL
- Minimum Fungicidal Concentration (C. albicans; C. albicans MY 1055): 2 µg/mL
- Minimum Fungicidal Concentration (C. albicans; C. albicans MY 1208): 4 µg/mL
- Minimum Fungicidal Concentration (C. parapsilosis): > 128 µg/mL
- Minimum Fungicidal Concentration (C. tropicalis): 1 µg/mL

Source: US5330973A, “Lipopeptide derivatives” (Merck & Co., Inc., priority 1990, dated 1994)
